Biological target: AMPK
Assay: AMPK activation, enzyme-linked immunosorbent assay
Assay type: biochemical
Conditions: EC50 for AMPK activation, ELISA
How it was run: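 Test compounds were added, and kinase activation was then detected by immunoassay following established kit procedures.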

Compound	EC50
O=C(N[C@@H]1CCNC[C@@H]1F)c1ccc(C(=O)N2CCN(Cc3ccc(F)cc3)CC2)cn1 (relative stereo) [Compound 102, 5-(4-(4-fluorobenzyl)piperazine-1-carbonyl)-N-(cis-3-fluoropiperidin-4-yl)picolinamide]	5 to 10 µM
COc1ccc(C(=O)C2CCN(C(=O)c3ccc(C(=O)NC4CCN(Cc5ccc(C#N)cc5)CC4)cn3)CC2)cc1 [Compound 309, N-(1-(4-cyanobenzyl)piperidin-4-yl)-6-(4-(4-methoxybenzoyl)piperidine-1-carbonyl)nicotinamide]	< 0.5 µM
N#Cc1ccc(C(=O)N2CCC(NC(=O)c3ccc(C(=O)N4CCN(Cc5ccc(F)cc5)CC4)cn3)CC2)cc1 [Compound 4, N-(1-(4-cyanobenzoyl)piperidin-4-yl)-5-(4-(4-fluorobenzyl)piperazine-1-carbonyl)picolinamide]	0.5 to 1 µM
COc1ccc(CN2CCC(N(C)C(=O)c3ccc(C(=O)N4CCC(C(=O)c5ccc(OC)cc5)CC4)nc3)CC2)cc1 [Compound 484, 6-(4-(4-methoxybenzoyl)piperidine-1-carbonyl)-N-(1-(4-methoxybenzyl)piperidin-4-yl)-N-methylnicotinamide]	< 0.5 µM
N#Cc1ccc(CN2CCC(NC(=O)c3ccc(C(=O)N4CCC(Oc5cccnc5)CC4)cn3)CC2)cc1 [Compound 283, N-(1-(4-cyanobenzyl)piperidin-4-yl)-5-(4-(pyridin-3-yloxy)piperidine-1-carbonyl)picolinamide]	< 0.5 µM
CC(C)(c1ccc(C#N)cc1)N1CCC(NC(=O)c2ccc(C(=O)N3CCN(Cc4ccc(F)cc4)CC3)cn2)CC1 [Compound 111, N-(1-(2-(4-cyanophenyl)propan-2-yl)piperidin-4-yl)-5-(4-(4-fluorobenzyl)piperazine-1-carbonyl)picolinamide]	1 to 5 µM
CS(=O)(=O)Nc1ccc(CN2CCC(NC(=O)c3ccc(C(=O)N4CCC(Oc5ccc(C#N)cc5)CC4)nc3)CC2)cc1 [Compound 217, 6-(4-(4-cyanophenoxy)piperidine-1-carbonyl)-N-(1-(4-(methylsulfonamido)benzyl)piperidin-4-yl)nicotinamide]	> 10 µM
N#Cc1ccc(CN2CCC(NC(=O)c3cnc(C(=O)N4CCC(C(=O)c5ccc(N6CCCC6)cc5)CC4)cn3)CC2)cc1 [Compound 219, N-(1-(4-cyanobenzyl)piperidin-4-yl)-5-(4-(4-(pyrrolidin-1-yl)benzoyl)piperidine-1-carbonyl)pyrazine-2-carboxamide]	< 0.5 µM
O=C(Nc1ccc(Oc2ccc(F)cc2)nc1)c1ccc(C(=O)N2CCC(C(=O)c3ccc(N4CCOCC4)cc3)CC2)cn1 [Compound 379, N-(6-(4-fluorophenoxy)pyridin-3-yl)-5-(4-(4-morpholinobenzoyl)piperidine-1-carbonyl)picolinamide]	< 0.5 µM
COc1ccc(-c2ccc(Nc3ccc(C(=O)NC4CCN(Cc5ccccc5)CC4)nc3)cc2)cc1 [Compound 120, N-(1-benzylpiperidin-4-yl)-5-(4′-methoxybiphenyl-4-ylamino)picolinamide]	> 10 µM
O=C(NC1CCN(Cc2ccc(Cl)cc2)CC1)c1ccc(C(=O)N2CCN(Cc3ccc(F)cc3)CC2)cn1 [Compound 52, N-(1-(4-chlorobenzyl)piperidin-4-yl)-5-(4-(4-fluorobenzyl)piperazine-1-carbonyl)picolinamide]	< 0.5 µM
N#Cc1ccc(CN2CC[C@@H](NC(=O)c3ccc(C(=O)N4CCN(Cc5ccc(F)cc5)CC4)cn3)C2)cc1 [Compound 118, (R)-N-(1-(4-cyanobenzyl)pyrrolidin-3-yl)-5-(4-(4-fluorobenzyl)piperazine-1-carbonyl)picolinamide]	< 0.5 µM
COc1ccc(C(=O)C2CCN(C(=O)c3ccc(C(=O)N[C@@H]4CCN(Cc5ccc(OC(F)(F)F)cc5)C[C@H]4F)cn3)CC2)cc1 (relative stereo) [Compound 350, N-((trans)-3-fluoro-1-(4-(trifluoromethoxy)benzyl)piperidin-4-yl)-6-(4-(4-methoxybenzoyl)piperidine-1-carbonyl)nicotinamide]	< 0.5 µM
O=C(NC1CCN(Cc2ccc(F)cc2)CC1)c1cccc(C(=O)NC2CCN(Cc3ccc(F)cc3)CC2)n1 [Compound 87, N2,N6-bis(1-(4-fluorobenzyl)piperidin-4-yl)pyridine-2,6-dicarboxamide]	1 to 5 µM
N#Cc1ccc(CN2CCC(NC(=O)c3ccc(C(=O)N4CCC(C(=O)c5ccc(-n6cccn6)cc5)CC4)nc3)CC2)cc1 [Compound 393, 6-(4-(4-(1H-pyrazol-1-yl)benzoyl)piperidine-1-carbonyl)-N-(1-(4-cyanobenzyl)piperidin-4-yl)nicotinamide]	< 0.5 µM
COc1ccc(OC2CCN(C(=O)c3ccc(C(=O)NC4CCN(Cc5ccc(N6CCCC6)cc5)CC4)nc3)CC2)cc1 [Compound 195, 5-(4-(4-methoxyphenoxy)piperidine-1-carbonyl)-N-(1-(4-(pyrrolidin-1-yl)benzyl)piperidin-4-yl)picolinamide]	< 0.5 µM

Compound	EC50
N#Cc1ccc(CN2CCC(NC(=O)c3ccc(C(=O)N4CCC(S(=O)(=O)c5ccc(F)cc5)CC4)nc3)CC2)cc1 [Compound 471, N-(1-(4-cyanobenzyl)piperidin-4-yl)-6-(4-(4-fluorophenylsulfonyl)piperidine-1-carbonyl)nicotinamide]	1 to 5 µM
COc1ccc(CN2CCC(NC(=O)c3ccc(C(=O)N4CCC(C(=O)c5ccc(F)c(F)c5)CC4)cn3)CC2)cc1 [Compound 329, 5-(4-(3,4-difluorobenzoyl)piperidine-1-carbonyl)-N-(1-(4-methoxybenzyl)piperidin-4-yl)picolinamide]	< 0.5 µM
N#Cc1ccc(CN2CCC(NC(=O)c3ccc(C(=O)N4CCC(Oc5ccc(F)cc5F)CC4)nc3)CC2)cc1 [Compound 345, N-(1-(4-cyanobenzyl)piperidin-4-yl)-6-(4-(2,4-difluorophenoxy)piperidine-1-carbonyl)nicotinamide]	< 0.5 µM
O=C(NC1CCN(Cc2cc(F)cc(F)c2)CC1)c1ccc(C(=O)N2CCC(Oc3ccc(F)c(F)c3)CC2)cn1 [Compound 297, N-(1-(3,5-difluorobenzyl)piperidin-4-yl)-5-(4-(3,4-difluorophenoxy)piperidine-1-carbonyl)picolinamide]	< 0.5 µM
CC(=O)c1ccc(Oc2ccc(NC(=O)c3ccc(C(=O)N4CCC(Oc5ccc(S(=O)(=O)C6CC6)cc5)CC4)nc3)cn2)cc1 [Compound 486, N-(6-(4-acetylphenoxy)pyridin-3-yl)-6-(4-(4-(cyclopropylsulfonyl)phenoxy)piperidine-1-carbonyl)nicotinamide]	< 0.5 µM
COc1ccc(OC2CCN(C(=O)c3ccc(C(=O)NC4CCN(Cc5ccc(C#N)cc5)CC4)cn3)CC2)c(N)c1 [Compound 384, 6-(4-(2-amino-4-methoxyphenoxy)piperidine-1-carbonyl)-N-(1-(4-cyanobenzyl)piperidin-4-yl)nicotinamide]	0.5 to 1 µM
COc1ccc(C(=O)C2CCN(C(=O)c3ncc(C(=O)NC4CCN(Cc5ccc(C#N)cc5)CC4)cc3CCCNC(=O)OC(C)(C)C)CC2)cc1 [Compound 416, tert-butyl 3-(5-(1-(4-cyanobenzyl)piperidin-4-ylcarbamoyl)-2-(4-(4-methoxybenzoyl)piperidine-1-carbonyl)pyridin-3-yl)propylcarbamate]	1 to 5 µM
N#Cc1ccc(CN2CCC(NC(=O)c3ccc(C(=O)N4CCC(Oc5ccc(S(=O)(=O)C6CC6)cc5)CC4)nc3)CC2)cc1 [Compound 246, N-(1-(4-cyanobenzyl)piperidin-4-yl)-6-(4-(4-(cyclopropylsulfonyl)phenoxy)piperidine-1-carbonyl)nicotinamide]	< 0.5 µM
N#Cc1ccc(OC2CN(C(=O)c3ccc(C(=O)NC4CCN(Cc5cc(F)cc(F)c5)CC4)nc3)C2)cc1 [Compound 313, 5-(3-(4-cyanophenoxy)azetidine-1-carbonyl)-N-(1-(3,5-difluorobenzyl)piperidin-4-yl)picolinamide]	< 0.5 µM
N#Cc1ccc(CN2CCC(NC(=O)c3ccc(N4CCN(Cc5ccc(F)cc5)CC4)nn3)CC2)cc1 [Compound 491, N-(1-(4-cyanobenzyl)piperidin-4-yl)-6-(4-(4-fluorobenzyl)piperazin-1-yl)pyridazine-3-carboxamide]	1 to 5 µM
CS(=O)(=O)c1ccc(N2CCC(NC(=O)c3ccc(C(=O)N4CCC(Oc5ccc(C#N)cc5)CC4)nc3)CC2)cc1 [Compound 420, 6-(4-(4-cyanophenoxy)piperidine-1-carbonyl)-N-(1-(4-(methylsulfonyl)phenyl)piperidin-4-yl)nicotinamide]	1 to 5 µM
O=C(NC1CCN(Cc2ccc(N3CCCC3)cc2)CC1)c1ccc(C(=O)N2CCC(Oc3ccc(S(=O)(=O)C4CC4)cc3)CC2)nc1 [Compound 248, 6-(4-(4-(cyclopropylsulfonyl)phenoxy)piperidine-1-carbonyl)-N-(1-(4-(pyrrolidin-1-yl)benzyl)piperidin-4-yl)nicotinamide]	< 0.5 µM
CCS(=O)(=O)c1ccc(C(=O)C2CCN(C(=O)c3ccc(C(=O)NC4CCN(Cc5ccc(C#N)cc5)CC4)nc3)CC2)cc1 [Compound 260, N-(1-(4-cyanobenzyl)piperidin-4-yl)-5-(4-(4-(ethylsulfonyl)benzoyl)piperidine-1-carbonyl)picolinamide]	< 0.5 µM
CC(=O)Nc1ccc(OC2CCN(C(=O)c3ccc(C(=O)Nc4ccc(Oc5ccc(F)cc5)nc4)nc3)CC2)cc1 [Compound 408, 5-(4-(4-acetamidophenoxy)piperidine-1-carbonyl)-N-(6-(4-fluorophenoxy)pyridin-3-yl)picolinamide]	< 0.5 µM
N#Cc1ccc(CN2CCC(NC(=O)c3ccc(C(=O)N4CCC(C(=O)c5cccs5)CC4)cn3)CC2)cc1 [Compound 419, N-(1-(4-cyanobenzyl)piperidin-4-yl)-5-(4-(thiophene-2-carbonyl)piperidine-1-carbonyl)picolinamide]	< 0.5 µM
N#Cc1ccc(CN2CCC(NC(=O)c3cnc(C(=O)N4CCC(Oc5ccc(C(F)(F)F)cc5)CC4)cn3)CC2)cc1 [Compound 212, N-(1-(4-cyanobenzyl)piperidin-4-yl)-5-(4-(4-(trifluoromethyl)phenoxy)piperidine-1-carbonyl)pyrazine-2-carboxamide]	< 0.5 µM
